From PubChem BioAssay AID248 (DTP/NCI, 2004)
Toxic doses and inconclusive results are not listed. Cut-off read from the data, not from the text of the source: active = T/C of 150% or more; inactive = T/C below 125%.

System: L1210 leukemia ip in BDF1 mice, survival T/C
Assay: NCI In Vivo Anticancer Drug Screen. Data for tumor model L1210 Leukemia (intraperitoneal) in B6D2F1 (BDF1) mice
Details: endpoint: mean survival time, higher = longer survival
How it was run: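 Tumor was transplanted into mice, which were then dosed with test compound or vehicle alone. Survival was recorded for each group, and the treated figure was expressed relative to the control figure.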

[1] = dose: 100.0 mg/kg/injection, schedule: Q04DX003 (ip), vehicle: Klucel (hydroxypropylcellulose) (HPC)
[2] = dose: 200.0 mg/kg/injection, schedule: Q04DX003 (ip), vehicle: Klucel (hydroxypropylcellulose) (HPC)
[3] = dose: 400.0 mg/kg/injection, schedule: Q04DX003 (ip), vehicle: Klucel (hydroxypropylcellulose) (HPC)
[4] = dose: 100.0 mg/kg/injection, schedule: Q01DX009 (ip), vehicle: Klucel (hydroxypropylcellulose) (HPC)
[5] = dose: 200.0 mg/kg/injection, schedule: Q01DX009 (ip), vehicle: Klucel (hydroxypropylcellulose) (HPC)
[6] = dose: 400.0 mg/kg/injection, schedule: Q01DX009 (ip), vehicle: Klucel (hydroxypropylcellulose) (HPC)
[7] = dose: 100.0 mg/kg/injection, schedule: Q01DX001 (ip), vehicle: saline
[8] = dose: 200.0 mg/kg/injection, schedule: Q01DX001 (ip), vehicle: saline
[9] = dose: 400.0 mg/kg/injection, schedule: Q01DX001 (ip), vehicle: saline
[10] = dose: 100.0 mg/kg/injection, schedule: Q01DX009 (ip), vehicle: saline with Tween-80
[11] = dose: 100.0 mg/kg/injection, schedule: Q04DX003 (ip), vehicle: saline with Tween-80
[12] = dose: 200.0 mg/kg/injection, schedule: Q01DX009 (ip), vehicle: saline with Tween-80
[13] = dose: 200.0 mg/kg/injection, schedule: Q04DX003 (ip), vehicle: saline with Tween-80
[14] = dose: 400.0 mg/kg/injection, schedule: Q01DX009 (ip), vehicle: saline with Tween-80
[15] = dose: 400.0 mg/kg/injection, schedule: Q04DX003 (ip), vehicle: saline with Tween-80
[16] = dose: 50.0 mg/kg/injection, schedule: Q01DX009 (ip), vehicle: saline with Tween-80

Measured: T/C

CCCCCCCCCCCC(=O)NC(=S)Nc1ccc(C)c(Cl)c1
inactive: [1] 89 % of control | [2] 95 % of control | [3] 90 % of control

Cc1cc(C)c(C(C)(CS(C)(=O)=O)CS(C)(=O)=O)c(C)c1C(C)(CS(C)(=O)=O)CS(C)(=O)=O
inactive: [4] 105 % of control | [5] 102 % of control | [6] 105 % of control

NCC1COc2ccccc2O1 (stereo not drawn)
inactive: dose: 75.0 mg/kg/injection, schedule: Q01DX001 (ip), vehicle: carboxymethylcellulose (CMC) 98 % of control | dose: 150.0 mg/kg/injection, schedule: Q01DX001 (ip), vehicle: carboxymethylcellulose (CMC) 96 % of control | dose: 300.0 mg/kg/injection, schedule: Q01DX001 (ip), vehicle: carboxymethylcellulose (CMC) 96 % of control

COC1(OC)C2(Cl)C3C4C5(OC(C)=O)C(=O)C3(OC(C)=O)C3C5C(Cl)(C41Cl)C32Cl (stereo not drawn)
inactive: [7] 100 % of control | [8] 96 % of control | [9] 96 % of control

O=[N+]([O-])c1ccc(Oc2cc(Cl)c(Cl)cc2Cl)nc1
inactive: [10] 101 % of control | [11] 104 % of control | [12] 103 % of control | [13] 102 % of control | [14] 100 % of control | [15] 106 % of control

C=Cc1ccc(N)cc1
inactive: [16] 90 % of control | [11] 87 % of control | [12] 93 % of control | [13] 90 % of control

COC(=O)/C=C(\C)Nc1cc(OC)ccc1OC
inactive: [7] 94 % of control | [8] 87 % of control | [9] 92 % of control

O=C1c2ccccc2C(=O)c2cc(S(=O)(=O)O)ccc21
inactive: [11] 95 % of control | [13] 95 % of control | [15] 95 % of control

COC1OC2COCOC2C(OS(=O)(=O)c2ccc(C)cc2)C1OS(=O)(=O)c1ccc(C)cc1 (stereo not drawn)
inactive: dose: 100.0 mg/kg/injection, schedule: Q04DX002 (ip), vehicle: Klucel (hydroxypropylcellulose) (HPC) 100 % of control | [11] 89 % of control | dose: 200.0 mg/kg/injection, schedule: Q04DX002 (ip), vehicle: Klucel (hydroxypropylcellulose) (HPC) 95 % of control | [13] 86 % of control | dose: 400.0 mg/kg/injection, schedule: Q04DX002 (ip), vehicle: Klucel (hydroxypropylcellulose) (HPC) 92 % of control

C=CCNc1n[nH]c(=S)s1
inactive: [10] 101 % of control | [12] 95 % of control | [14] 98 % of control

O=S1(=O)C(C(O)(c2ccccc2)c2ccccc2)CCC1C(O)(c1ccccc1)c1ccccc1 (stereo not drawn)
inactive: [4] 98 % of control | [1] 102 % of control | [5] 98 % of control | [2] 93 % of control | [6] 93 % of control | [3] 105 % of control

CCOC(=O)CN1CCC(C(=O)OCC)CC1
inactive: dose: 50.0 mg/kg/injection, schedule: Q01DX001 (ip), vehicle: carboxymethylcellulose (CMC) 106 % of control | dose: 100.0 mg/kg/injection, schedule: Q01DX001 (ip), vehicle: carboxymethylcellulose (CMC) 97 % of control | dose: 200.0 mg/kg/injection, schedule: Q01DX001 (ip), vehicle: carboxymethylcellulose (CMC) 103 % of control | dose: 400.0 mg/kg/injection, schedule: Q01DX001 (ip), vehicle: carboxymethylcellulose (CMC) 106 % of control

CNC(=O)NNC(=O)c1ccc(Cl)cc1
inactive: dose: 25.0 mg/kg/injection, schedule: Q01DX009 (ip), vehicle: saline with Tween-80 91 % of control | [16] 94 % of control
